Among the data in PubChem BioAssay (NCI) are TGI and GI50 values, retold here.

Structures are written as SMILES. Several values for one entry are separate records, joined by “and”; a condition that tells them apart may be missing. Equal entries are not always repeated.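 Briefly, cells in 96-well plates were exposed to five compound concentrations for 48 h, and endpoints were estimated by linear interpolation. GI50 = concentration required for 50% inhibition of growth. The concentration for full growth arrest is given as TGI.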

The first test has as its system BT-549 breast. In words: NCI-60 cell line screen, 48 h.
In turn, `CN(O)C(=O)c1cccc(Cl)c1` gave a TGI greater than 100 µM.

The subject of the next test is NCI-H226 lung. In words: NCI-60 cell line screen, 48 h.
As to `O=c1c2c([N+](=O)[O-])cccc2nc2[nH]c3ccccc3n12`, the TGI was greater than 75 µM.

Compound `Cc1cc(C)cc(Nc2cc(=O)[nH]c(=O)[nH]2)c1` returned a TGI greater than 100 µM.

`Cc1ccc(/C(O)=C/C(=O)C(=O)/C=C(\O)c2ccc(C)cc2C)c(C)c1` came in with a TGI of 4.51 µM.

For the compound `Cc1ccc([C@H]2CC(=O)C[C@H](c3ccc(C)cc3)C23C(=O)c2ccccc2C3=O)cc1`, the TGI is greater than 100 µM.

In the case of `O=c1c2ncn(COCCCl)c2n(-c2ccccc2)c(=S)n1-c1ccccc1`, the TGI was greater than 100 µM.

As for `O=C(O)c1ccc(S(=O)(=O)c2ccccc2[N+](=O)[O-])cc1`, the TGI was greater than 10 µM.

`COc1ccc(/C=N/N=C(\N)NO)c(O)c1` had a TGI greater than 10 µM.

Compound `CC1(CF)SCc2nc3ccccc3n21` (stereo not drawn) yielded a TGI greater than 100 µM.

`Nc1cccc(Nc2nc3ccccc3nc2NS(=O)(=O)c2ccccc2)c1` gave a TGI greater than 100 µM.

`CN(C)Cc1cc(C(=O)/C=C/c2ccccc2Cl)cc(CN(C)C)c1O` displayed a TGI of 48.2 µM.

As for `COc1cc(CNc2ccc(SC)cc2)cc(OC)c1OC`, the GI50 is 26.4 µM and 11.9 µM; the TGI is > 100 µM and 84.7 µM.

Take `Nc1ccc(N=Nc2ccccc2)cc1`: the TGI is greater than 100 µM.

As for `CN(NC(=O)c1cccs1)C1=NCCCN1`, the TGI is greater than 100 µM.

`Cc1ccn2c(=O)cc(-c3ccccc3)nc2c1` displayed a TGI greater than 100 µM.

As to `CCn1nc2c3c(ncn3C(C)(C)O2)c1=O`, the TGI was greater than 100 µM.

Compound `O=C1CCCCC(=O)OC2(CCCCC2=O)CC1` (stereo not drawn) yielded a TGI greater than 100 µM.

`CCC(C#N)NC(=O)NC(C#N)CC` (stereo not drawn) came in with a TGI greater than 100 µM.

Turning to `CCOC(=O)/C=C(/C(=O)OCC)n1ccc(N)nc1=O`, the TGI was greater than 100 µM.

The compound `C[C@H](N)C(=O)Nc1ccc(-c2nc3ccccc3s2)cc1` showed a TGI of 97.8 µM.

The compound `CN(O)C(=O)c1cccc(Cl)c1` registered a TGI greater than 100 µM.

Another test has as its system SR leukemia. In words: NCI-60 cell line screen, 48 h.
In turn, `O=c1c2c([N+](=O)[O-])cccc2nc2[nH]c3ccccc3n12` showed a TGI greater than 75 µM.

Regarding `Cc1cc(C)cc(Nc2cc(=O)[nH]c(=O)[nH]2)c1`, the TGI is greater than 100 µM.

In turn, `Cc1ccc(/C(O)=C/C(=O)C(=O)/C=C(\O)c2ccc(C)cc2C)c(C)c1` came in with a TGI of 4.8 µM.

Consider `Cc1ccc([C@H]2CC(=O)C[C@H](c3ccc(C)cc3)C23C(=O)c2ccccc2C3=O)cc1`, for which the TGI is 34.3 µM.

`O=c1c2ncn(COCCCl)c2n(-c2ccccc2)c(=S)n1-c1ccccc1`: the TGI is greater than 100 µM.

The compound `O=C(O)c1ccc(S(=O)(=O)c2ccccc2[N+](=O)[O-])cc1` returned a TGI greater than 10 µM.

Take `COc1ccc(/C=N/N=C(\N)NO)c(O)c1`: the TGI was greater than 10 µM.

On to `CC1(CF)SCc2nc3ccccc3n21` (stereo not drawn), for which the TGI was greater than 100 µM.

On to `Nc1cccc(Nc2nc3ccccc3nc2NS(=O)(=O)c2ccccc2)c1`, for which the TGI came out at 57.8 µM.

On to `CN(C)Cc1cc(C(=O)/C=C/c2ccccc2Cl)cc(CN(C)C)c1O`, for which the TGI came out at 35.5 µM.

With `COc1cc(CNc2ccc(SC)cc2)cc(OC)c1OC`, the GI50 is 4.17 µM and 1.63 µM; the TGI is greater than 100 µM.

Take `Nc1ccc(N=Nc2ccccc2)cc1`: the TGI is greater than 100 µM.

`CN(NC(=O)c1cccs1)C1=NCCCN1` had a TGI greater than 100 µM.

For the compound `Cc1ccn2c(=O)cc(-c3ccccc3)nc2c1`, the TGI was greater than 100 µM.

Turning to `CCn1nc2c3c(ncn3C(C)(C)O2)c1=O`, the TGI is greater than 100 µM.

In turn, `O=C1CCCCC(=O)OC2(CCCCC2=O)CC1` (stereo not drawn) displayed a TGI greater than 100 µM.

The compound `CCC(C#N)NC(=O)NC(C#N)CC` (stereo not drawn) yielded a TGI greater than 100 µM.

Compound `CCOC(=O)/C=C(/C(=O)OCC)n1ccc(N)nc1=O` returned a TGI greater than 100 µM.

For the compound `C[C@H](N)C(=O)Nc1ccc(-c2nc3ccccc3s2)cc1`, the TGI was 31.2 µM.

Compound `CN(O)C(=O)c1cccc(Cl)c1` yielded a TGI greater than 100 µM.

The subject of another test is COLO 205 colon. Description: NCI-60 cell line screen, 48 h.
Consider `O=c1c2c([N+](=O)[O-])cccc2nc2[nH]c3ccccc3n12`, for which the TGI is greater than 75 µM.

In turn, `Cc1cc(C)cc(Nc2cc(=O)[nH]c(=O)[nH]2)c1` had a TGI greater than 100 µM.

As to `Cc1ccc(/C(O)=C/C(=O)C(=O)/C=C(\O)c2ccc(C)cc2C)c(C)c1`, the TGI worked out at 3.66 µM.

Compound `Cc1ccc([C@H]2CC(=O)C[C@H](c3ccc(C)cc3)C23C(=O)c2ccccc2C3=O)cc1` yielded a TGI greater than 100 µM.

As to `O=c1c2ncn(COCCCl)c2n(-c2ccccc2)c(=S)n1-c1ccccc1`, the TGI was greater than 100 µM.

Compound `O=C(O)c1ccc(S(=O)(=O)c2ccccc2[N+](=O)[O-])cc1` gave a TGI greater than 10 µM.

Regarding `COc1ccc(/C=N/N=C(\N)NO)c(O)c1`, the TGI is greater than 10 µM.

Consider `CC1(CF)SCc2nc3ccccc3n21` (stereo not drawn), for which the TGI is greater than 100 µM.

In turn, `Nc1cccc(Nc2nc3ccccc3nc2NS(=O)(=O)c2ccccc2)c1` showed a TGI of 29.7 µM.

Regarding `CN(C)Cc1cc(C(=O)/C=C/c2ccccc2Cl)cc(CN(C)C)c1O`, the TGI was determined as 18.5 µM.

For `COc1cc(CNc2ccc(SC)cc2)cc(OC)c1OC`, the TGI is 12.8 µM and 12.4 µM.

As to `Nc1ccc(N=Nc2ccccc2)cc1`, the TGI was greater than 100 µM.

Consider `CN(NC(=O)c1cccs1)C1=NCCCN1`, for which the TGI is greater than 100 µM.

Consider `Cc1ccn2c(=O)cc(-c3ccccc3)nc2c1`, for which the TGI was greater than 100 µM.

As for `CCn1nc2c3c(ncn3C(C)(C)O2)c1=O`, the TGI is greater than 100 µM.

`O=C1CCCCC(=O)OC2(CCCCC2=O)CC1` (stereo not drawn) came in with a TGI greater than 100 µM.

In turn, `CCC(C#N)NC(=O)NC(C#N)CC` (stereo not drawn) registered a TGI greater than 100 µM.

`CCOC(=O)/C=C(/C(=O)OCC)n1ccc(N)nc1=O` had a TGI greater than 100 µM.

For the compound `C[C@H](N)C(=O)Nc1ccc(-c2nc3ccccc3s2)cc1`, the TGI came to 33.1 µM.

`CN(O)C(=O)c1cccc(Cl)c1` showed a TGI greater than 100 µM.

A further test has as its system A549 NSCLC. Description: NCI-60 cell line screen, 48 h.
The compound `O=c1c2c([N+](=O)[O-])cccc2nc2[nH]c3ccccc3n12` yielded a TGI greater than 75 µM.

In turn, `Cc1cc(C)cc(Nc2cc(=O)[nH]c(=O)[nH]2)c1` registered a TGI greater than 100 µM.

Regarding `Cc1ccc(/C(O)=C/C(=O)C(=O)/C=C(\O)c2ccc(C)cc2C)c(C)c1`, the TGI came to 4.16 µM.

`Cc1ccc([C@H]2CC(=O)C[C@H](c3ccc(C)cc3)C23C(=O)c2ccccc2C3=O)cc1` showed a TGI greater than 100 µM.

Compound `O=c1c2ncn(COCCCl)c2n(-c2ccccc2)c(=S)n1-c1ccccc1` returned a TGI greater than 100 µM.

For `O=C(O)c1ccc(S(=O)(=O)c2ccccc2[N+](=O)[O-])cc1`, the TGI was greater than 10 µM.

As to `COc1ccc(/C=N/N=C(\N)NO)c(O)c1`, the TGI is greater than 10 µM.

In the case of `CC1(CF)SCc2nc3ccccc3n21` (stereo not drawn), the TGI was greater than 100 µM.

With `Nc1cccc(Nc2nc3ccccc3nc2NS(=O)(=O)c2ccccc2)c1`, the TGI was greater than 100 µM.

`CN(C)Cc1cc(C(=O)/C=C/c2ccccc2Cl)cc(CN(C)C)c1O` displayed a TGI of 38.7 µM.

For `COc1cc(CNc2ccc(SC)cc2)cc(OC)c1OC`, the TGI is greater than 100 µM.

In turn, `Nc1ccc(N=Nc2ccccc2)cc1` showed a TGI greater than 100 µM.

Regarding `CN(NC(=O)c1cccs1)C1=NCCCN1`, the TGI was greater than 100 µM.

For the compound `Cc1ccn2c(=O)cc(-c3ccccc3)nc2c1`, the TGI is greater than 100 µM.

As to `CCn1nc2c3c(ncn3C(C)(C)O2)c1=O`, the TGI was greater than 100 µM.

Compound `O=C1CCCCC(=O)OC2(CCCCC2=O)CC1` (stereo not drawn) returned a TGI greater than 100 µM.

With `CCC(C#N)NC(=O)NC(C#N)CC` (stereo not drawn), the TGI was greater than 100 µM.

`CCOC(=O)/C=C(/C(=O)OCC)n1ccc(N)nc1=O`: the TGI is greater than 100 µM.

As for `C[C@H](N)C(=O)Nc1ccc(-c2nc3ccccc3s2)cc1`, the TGI came out at 29.6 µM.

For `CN(O)C(=O)c1cccc(Cl)c1`, the TGI is greater than 100 µM.

A further test concerns HCT-116 colon. Description: NCI-60 cell line screen, 48 h.
`O=c1c2c([N+](=O)[O-])cccc2nc2[nH]c3ccccc3n12` displayed a TGI greater than 75 µM.

With `Cc1cc(C)cc(Nc2cc(=O)[nH]c(=O)[nH]2)c1`, the TGI was greater than 100 µM.

For `Cc1ccc(/C(O)=C/C(=O)C(=O)/C=C(\O)c2ccc(C)cc2C)c(C)c1`, the TGI is 6.58 µM.

In the case of `Cc1ccc([C@H]2CC(=O)C[C@H](c3ccc(C)cc3)C23C(=O)c2ccccc2C3=O)cc1`, the TGI was greater than 100 µM.

`O=c1c2ncn(COCCCl)c2n(-c2ccccc2)c(=S)n1-c1ccccc1` gave a TGI greater than 100 µM.

On to `O=C(O)c1ccc(S(=O)(=O)c2ccccc2[N+](=O)[O-])cc1`, for which the TGI is greater than 10 µM.

For `COc1ccc(/C=N/N=C(\N)NO)c(O)c1`, the TGI was greater than 10 µM.

Regarding `CC1(CF)SCc2nc3ccccc3n21` (stereo not drawn), the TGI was greater than 100 µM.

For the compound `Nc1cccc(Nc2nc3ccccc3nc2NS(=O)(=O)c2ccccc2)c1`, the TGI is 32.9 µM.

For the compound `CN(C)Cc1cc(C(=O)/C=C/c2ccccc2Cl)cc(CN(C)C)c1O`, the TGI stood at 19.8 µM.

For the compound `COc1cc(CNc2ccc(SC)cc2)cc(OC)c1OC`, the TGI was 51.1 µM and 35.4 µM.

Compound `Nc1ccc(N=Nc2ccccc2)cc1` yielded a TGI greater than 100 µM.

In turn, `CN(NC(=O)c1cccs1)C1=NCCCN1` registered a TGI greater than 100 µM.

`Cc1ccn2c(=O)cc(-c3ccccc3)nc2c1` displayed a TGI greater than 100 µM.

On to `CCn1nc2c3c(ncn3C(C)(C)O2)c1=O`, for which the TGI was greater than 100 µM.

Regarding `O=C1CCCCC(=O)OC2(CCCCC2=O)CC1` (stereo not drawn), the TGI was greater than 100 µM.

In turn, `CCC(C#N)NC(=O)NC(C#N)CC` (stereo not drawn) displayed a TGI greater than 100 µM.

In the case of `CCOC(=O)/C=C(/C(=O)OCC)n1ccc(N)nc1=O`, the TGI was greater than 100 µM.

On to `C[C@H](N)C(=O)Nc1ccc(-c2nc3ccccc3s2)cc1`, for which the TGI is 28.5 µM.

Consider `CN(O)C(=O)c1cccc(Cl)c1`, for which the TGI is greater than 100 µM.
